Bridge positions count the residues as written; N and C are the ends. Peptide text beside a SMILES is read from it.
Key:
[1] = Inhibition of GABA-B receptor-mediated high voltage-activated Ca2+ channel current in Wistar rat DRG neurons by whole-cell patch clamp assay; conditions: DRG neuron
[2] = Metabolic stability in human AB positive serum assessed as compound degradation at 20 uM at 5 hrs; assay type: ADME, cell-free; conditions: read-out: Drug metabolism
Oocyte [3] = assay: Inhibition of human alpha-9/rat alpha-10 nACHR expressed in Xenopus oocytes assessed as inhibition of acetylcholine-induced current by voltage clamp assay relative to RgIA; assay type: cell-based; conditions: dose or concentration not given here
[4] = Inhibition of human alpha-9/rat alpha-10 nAChR expressed in Xenopus oocytes assessed as inhibition of acetylcholine-induced current by voltage clamp assay; assay type: cell-based; conditions: Oocyte
Oocyte [5] = assay: Inhibition of human alpha-9/rat alpha-10 nACHR expressed in Xenopus oocytes assessed as inhibition of acetylcholine-induced current at 50 nM by voltage clamp assay; assay type: cell-based

Structure (SMILES)	IC50 [1]	metabolised at 5 h, 20 µM [2]	inhibition (Oocyte [3])	IC50 [4]	inhibition (Oocyte [5])
C[C@H](NC(=O)CNC(=O)CNC(=O)[C@@H]1CSSC[C@H](NC(=O)CN)C(=O)N[C@H]2CSSC[C@H](NC(=O)[C@H](CCCNC(=N)N)NC(=O)[C@@H]3CCCN3C(=O)[C@H](CC(=O)O)NC(=O)[C@H](CO)NC2=O)C(=O)N[C@@H](CCCNC(=N)N)C(=O)N[C@@H](Cc2ccc(O)cc2)C(=O)N[C@@H](CCCNC(=N)N)C(=O)N1)C(=O)N[C@@H](C)C(=O)NCC(=O)NCC(=O)O (H-GCCSDPRCRYRCGGAAGG-OH; disulfide 2-12, 3-8)	4.3 nM	43%	39%	> 50 nM	–
C[C@H](NC(=O)CNC(=O)[C@H](C)NC(=O)[C@H](C)NC(=O)CNC(=O)CNC(=O)[C@@H]1CSSC[C@H](NC(=O)CN)C(=O)N[C@H]2CSSC[C@H](NC(=O)[C@H](CCCNC(=N)N)NC(=O)[C@@H]3CCCN3C(=O)[C@H](CC(=O)O)NC(=O)[C@H](CO)NC2=O)C(=O)N[C@@H](CCCNC(=N)N)C(=O)N[C@@H](Cc2ccc(O)cc2)C(=O)N[C@@H](CCCNC(=N)N)C(=O)N1)C(=O)NCC(=O)O (H-GCCSDPRCRYRCGGAAGAG-OH; disulfide 2-12, 3-8)	36.3 nM	54%	–	19 nM	60%
N=C(N)NCCC[C@H](NC(=O)[C@@H]1CSSC[C@@H]2NC(=O)[C@@H](NC(=O)CN)CSSC[C@H](NC(=O)[C@H](CCCNC(=N)N)NC(=O)[C@@H]3CCCN3C(=O)[C@H](CC(=O)O)NC(=O)[C@H](CO)NC2=O)C(=O)N[C@@H](CCCNC(=N)N)C(=O)N[C@@H](Cc2ccc(O)cc2)C(=O)N[C@@H](CCCNC(=N)N)C(=O)N1)C(=O)O	40.7 nM	–	–	40 nM	60%
C[C@H](NC(=O)CNC(=O)[C@@H]1CSSC[C@H](NC(=O)CN)C(=O)N[C@H]2CSSC[C@H](NC(=O)[C@H](CCCNC(=N)N)NC(=O)[C@@H]3CCCN3C(=O)[C@H](CC(=O)O)NC(=O)[C@H](CO)NC2=O)C(=O)N[C@@H](CCCNC(=N)N)C(=O)N[C@@H](Cc2ccc(O)cc2)C(=O)N[C@@H](CCCNC(=N)N)C(=O)N1)C(=O)N[C@@H](C)C(=O)NCC(=O)O (H-GCCSDPRCRYRCGAAG-OH; disulfide 2-12, 3-8)	70.1 nM	–	12%	–	–
C[C@H](NC(=O)[C@H](C)NC(=O)CNC(=O)[C@@H]1CSSC[C@H](NC(=O)CN)C(=O)N[C@H]2CSSC[C@H](NC(=O)[C@H](CCCNC(=N)N)NC(=O)[C@@H]3CCCN3C(=O)[C@H](CC(=O)O)NC(=O)[C@H](CO)NC2=O)C(=O)N[C@@H](CCCNC(=N)N)C(=O)N[C@@H](Cc2ccc(O)cc2)C(=O)N[C@@H](CCCNC(=N)N)C(=O)N1)C(=O)O (H-GCCSDPRCRYRCGAA-OH; disulfide 2-12, 3-8)	82.5 nM	–	8%	–	–
C[C@H](NC(=O)CNC(=O)[C@@H]1CSSC[C@H](NC(=O)CN)C(=O)N[C@H]2CSSC[C@H](NC(=O)[C@H](CCCNC(=N)N)NC(=O)[C@@H]3CCCN3C(=O)[C@H](CC(=O)O)NC(=O)[C@H](CO)NC2=O)C(=O)N[C@@H](CCCNC(=N)N)C(=O)N[C@@H](Cc2ccc(O)cc2)C(=O)N[C@@H](CCCNC(=N)N)C(=O)N1)C(=O)N[C@@H](C)C(=O)NCC(=O)NCC(=O)O (H-GCCSDPRCRYRCGAAGG-OH; disulfide 2-12, 3-8)	11.5 nM	–	25%	–	–
N=C(N)NCCC[C@@H]1NC(=O)[C@H](Cc2ccc(O)cc2)NC(=O)[C@H](CCCNC(=N)N)NC(=O)[C@@H]2CSSC[C@H](NC(=O)CN)C(=O)N[C@@H](CSSC[C@@H](C(=O)O)NC1=O)C(=O)N[C@@H](CO)C(=O)N[C@@H](CC(=O)O)C(=O)N1CCC[C@H]1C(=O)N[C@@H](CCCNC(=N)N)C(=O)N2 (H-GCCSDPRCRYRC-OH; disulfide 2-8, 3-12)	4.4 nM	92%	–	34 nM	55%

Source: ChEMBL document CHEMBL1833824, “Effects of cyclization on stability, structure, and activity of α-conotoxin RgIA at the α9α10 nicotinic acetylcholine receptor and GABA(B) receptor” (J Med Chem, 2011)
